Assay results as given in patent publication US20060093690A1, “Novel therapeutic use of polypodium extracts” (Especialidades Farmaceuticas Centrum, S.A., priority 2002, published 2006).

Key:
Peyronie's patients [1] = details: 60 patients, 10 months; cited from earlier work
TFG-β expression = details: rats, Peyronie's disease by injection of TGF-β in penis; cited from earlier work
Peyronie's patients [2] = assay: Clinical trial on 34 Peyronie's patients for 6 months, Polypodium versus Tamoxifen; type: in vivo, human
Procedure: (§1) The obtained results were statically significant.
(§2) The patients of Polypodium group were treated with 720 mg of Polypodium extract, orally, at 8-hourly intervals.
(§3) The patients of Tamoxifen group were treated with 20 mg of Tamoxifen, orally, at 24-hourly intervals.
The age was similar in both groups.
The plaque was assessed by physical examination and penis ecography.
Penis incurvation was assessed by photograph.

TGF-β = TGF-β production in Peyronie's patients post treatment; type: in vivo, human; details: compared with initial values, Tamoxifen group
Procedure: as §1, §2, §3
A 22% post treatment decrease in TGF-β production was found in Polypodium group when compared with initial values, against 5% in Tamoxifen group.

IL-10 = IL-10 production in Peyronie's patients post treatment; type: in vivo, human; details: compared with initial values
Procedure: as §1, §2, §3
Also, a 17% post treatment decrease in IL-10 production in Polypodium group when compared with initial values, against 79% in Tamoxifen group.

[3] = on administration; cited from earlier work
Peyronie's disease = details: comparative clinical study; cited from earlier work
[4] = 6 months, oral, assessed by photograph
[5] = 6 months, oral, physical examination and penis ecography

SMILES: COc1cc2c(c(OC)c1OC)-c1ccc(OC)c(=O)cc1[C@@H](NC(C)=O)CC2 [colchicin]
- penis incurvature improved, % of patients (Peyronie's patients [1]): 30%
- penis incurvature no change/unchanged, % of patients (Peyronie's patients [1]): 48%
- penis incurvature worse/deteriorated, % of patients (Peyronie's patients [1]): 22%
- effect on TFG-β expression (TFG-β expression): reduces TFG-β expression

SMILES: CC/C(=C(\c1ccccc1)c1ccc(OCCN(C)C)cc1)c1ccccc1 [Tamoxifen]
- Coital difficulty, Improv, % of patients (Peyronie's patients [2]; 6 months, oral): 40%
- Coital difficulty, Improv, number of patients (Peyronie's patients [2]; 6 months, oral): 6
- Coital difficulty, Same, % of patients (Peyronie's patients [2]; 6 months, oral): 20%
- Coital difficulty, Same, number of patients (Peyronie's patients [2]; 6 months, oral): 3
- Coital difficulty, Worse, % of patients (Peyronie's patients [2]; 6 months, oral): 40%
- Coital difficulty, Worse, number of patients (Peyronie's patients [2]; 6 months, oral): 6
- Pain, Improv, % of patients (Peyronie's patients [2]; 6 months, oral): 66%
- Pain, Improv, number of patients (Peyronie's patients [2]; 6 months, oral): 10
- Pain, Same, % of patients (Peyronie's patients [2]; 6 months, oral): 33%
- Pain, Same, number of patients (Peyronie's patients [2]; 6 months, oral): 5
- Pain, Worse, number of patients (Peyronie's patients [2]; 6 months, oral): 0
- Penis incurvation, Same, % of patients (Peyronie's patients [2]; 6 months, oral): 33%
- Penis incurvation, Same, number of patients (Peyronie's patients [2]; 6 months, oral): 5
- Penis incurvation, Worse, % of patients (Peyronie's patients [2]; 6 months, oral): 20%
- Penis incurvation, Worse, number of patients (Peyronie's patients [2]; 6 months, oral): 3
- Plaque, Same, % of patients (Peyronie's patients [2]; 6 months, oral): 53%
- Plaque, Same, number of patients (Peyronie's patients [2]; 6 months, oral): 8
- Plaque, Worse, % of patients (Peyronie's patients [2]; 6 months, oral): 20%
- Plaque, Worse, number of patients (Peyronie's patients [2]; 6 months, oral): 3
- Penis incurvation, Improv, % of patients (Peyronie's patients [2]; [4]): 46%
- Penis incurvation, Improv, number of patients (Peyronie's patients [2]; [4]): 7
- Plaque, Improv, % of patients (Peyronie's patients [2]; [5]): 27%
- Plaque, Improv, number of patients (Peyronie's patients [2]; [5]): 4
- patients of group satisfied after treatment (Peyronie's patients [2]; after treatment): 45%
- post treatment decrease in TGF-β production (TGF-β): 5%
- post treatment decrease in IL-10 production (IL-10): 79%
- adverse effects [3]: diminution of sexual desire and diminution of the eyaculate
- results versus placebo (Peyronie's disease): similar
